# From US20110136801A1, “Novel Compounds” (Dainippon Sumitomo Pharma Co. Ltd., priority 2009, published 2011)
# Molecular target: T1, human TLR7 (Homo sapiens, UniProt Q9NYK1)
# T1 construct: expressed in transfected cells; host or cells: HEK293 cell line stably expressing the pNiFty2-SEAP reporter plasmid; TLR7 in pUNO vector, blasticidin selection
# T1 sequence (Q9NYK1 27-1049): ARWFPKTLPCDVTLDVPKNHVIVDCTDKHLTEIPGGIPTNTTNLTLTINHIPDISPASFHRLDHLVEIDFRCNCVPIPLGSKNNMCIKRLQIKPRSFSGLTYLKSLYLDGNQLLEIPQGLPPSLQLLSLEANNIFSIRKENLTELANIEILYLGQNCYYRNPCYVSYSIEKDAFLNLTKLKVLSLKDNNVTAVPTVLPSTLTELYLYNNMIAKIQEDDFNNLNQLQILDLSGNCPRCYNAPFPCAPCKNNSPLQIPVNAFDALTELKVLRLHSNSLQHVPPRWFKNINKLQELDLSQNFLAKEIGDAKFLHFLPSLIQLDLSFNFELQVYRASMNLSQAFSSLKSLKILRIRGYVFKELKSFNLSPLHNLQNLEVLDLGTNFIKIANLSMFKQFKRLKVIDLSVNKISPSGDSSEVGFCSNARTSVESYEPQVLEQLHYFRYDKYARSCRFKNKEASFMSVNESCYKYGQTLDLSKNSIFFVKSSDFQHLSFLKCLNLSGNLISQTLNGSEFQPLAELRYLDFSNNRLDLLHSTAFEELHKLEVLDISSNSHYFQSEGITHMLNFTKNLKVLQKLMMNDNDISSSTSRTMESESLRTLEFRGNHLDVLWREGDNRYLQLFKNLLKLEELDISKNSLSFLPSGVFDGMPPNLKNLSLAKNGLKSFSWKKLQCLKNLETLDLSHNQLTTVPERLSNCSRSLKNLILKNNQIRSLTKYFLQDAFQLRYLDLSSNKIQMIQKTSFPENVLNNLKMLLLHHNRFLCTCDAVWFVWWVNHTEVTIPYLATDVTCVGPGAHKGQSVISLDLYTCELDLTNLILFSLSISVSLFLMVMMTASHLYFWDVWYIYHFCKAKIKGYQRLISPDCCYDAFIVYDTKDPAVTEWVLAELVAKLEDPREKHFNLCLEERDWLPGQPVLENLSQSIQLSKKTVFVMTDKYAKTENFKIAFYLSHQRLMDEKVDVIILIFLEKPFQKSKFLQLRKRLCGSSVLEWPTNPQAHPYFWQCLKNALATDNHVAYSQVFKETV
# Assay: Human TLR7 Assay (SEAP reporter in HEK293 cells);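 further: Read-out is secreted alkaline phosphatase made under an NFkB/ELAM-1 composite promoter, reporting TLR7-triggered NFkB activation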
# Assay type: cell-based
# Details: HEK293 cell line expressing human TLR7 and pNiFty2-SEAP reporter, overnight incubation at 37° C., 0.1% DMSO; read-out: hTLR7 EC50
row,EC50 [nM],Structure (SMILES)
1,49.4,"CCOC(=O)COc1cc(CN(CCN2CCCCC2)C(=O)NCCCCn2c(CCOC)nc3c(N)nc4ccccc4c32)ccc1F [Example 143, Ethyl 2-{5-[(3-{4-[4-amino-2-(2-methoxyethyl)-1H-imidazo[4,5-c]quinolin-1-yl]butyl}-1-{2-(piperidin-1-yl)ethyl}ureido)methyl]-2-fluorophenoxy}acetate]"
2,256,"CCOC(=O)COc1cccc(CN(CCCn2c(CCOC)nc3c(N)nc4ccccc4c32)C(=O)CN(C)CC)c1F [Example 97, Ethyl 2-{3-[(N-{3-[4-amino-2-(2-methoxyethyl)-1H-imidazo[4,5-c]quinolin-1-yl]propyl}-2-{ethyl(methyl)amino}acetamido)methyl]-2-fluorophenoxy}acetate]"
3,61.3,"CCCCOC(=O)COc1cccc(CN(CCCn2c(CCOC)nc3c(N)nc4ccccc4c32)C(=O)CN(CC)CC)c1 [Example 83, Butyl 2-{3-[(N-{3-[4-amino-2-(2-methoxyethyl)-1H-imidazo[4,5-c]quinolin-1-yl]propyl}-2-{diethylamino}acetamido)methyl]phenoxy}acetate]"
4,42.6,"CCN(CC)CC(=O)N(CCCn1c(CCOC)nc2c(N)nc3ccccc3c21)Cc1cccc(OC(C)C(=O)OC)c1 (centres unmarked) [Example 51, Methyl 2-{3-[(N-{3-[4-amino-2-(2-methoxyethyl)-1H-imidazo[4,5-c]quinolin-1-yl]propyl}-2-{diethylamino}acetamido)methyl]phenoxy}propanoate]"
5,51.8,"CCN(CC)CC(=O)N(CCCn1c(CCOC)nc2c(N)nc3ccccc3c21)Cc1cccc(OC2(C(=O)OC)CC2)c1 [Example 79, Methyl 1-{3-[(N-{3-[4-amino-2-(2-methoxyethyl)-1H-imidazo[4,5-c]quinolin-1-yl]propyl}-2-{diethylamino}acetamido)methyl]phenoxy}cyclopropanecarboxylate]"
6,117,"CCCOCc1nc2c(N)nc3ccccc3c2n1CCCN(Cc1cccc(OC(C)(C)C(=O)OC)c1)C(=O)CN(CC)CC [Example 174, Methyl 2-{3-[(N-{3-[4-amino-2-(propoxymethyl)-1H-imidazo[4,5-c]quinolin-1-yl]propyl}-2-{diethylamino}acetamido)methyl]phenoxy}-2-methylpropanoate]"
7,96.4,"CCOCc1nc2c(N)nc3ccccc3c2n1CCCN(Cc1cccc(OC(C)(C)C(=O)OCC)c1)C(=O)CN(CC)CC [Example 162, Ethyl 2-{3-[(N-{3-[4-amino-2-(ethoxymethyl)-1H-imidazo[4,5-c]quinolin-1-yl]propyl}-2-{diethylamino}acetamido)methyl]phenoxy}-2-methylpropanoate]"
8,128,"COCCc1nc2c(N)nc3ccccc3c2n1CCCN(Cc1cccc(OCC(=O)OC2CCCC2)c1)C(=O)CN(C)C [Example 110, Cyclopentyl 2-{3-[(N-{3-[4-amino-2-(2-methoxyethyl)-1H-imidazo[4,5-c]quinolin-1-yl]propyl}-2-{dimethylamino}acetamido)methyl]phenoxy}acetate]"
9,787,"CCCCc1nc2c(N)nc3ccccc3c2n1CCCN(CCCN1CCOCC1)Cc1cccc(OCC(=O)OC)c1 [Example 21, Methyl (3-{[[3-(4-amino-2-butyl-1H-imidazo[4,5-c]quinolin-1-yl)propyl](3-morpholinopropyl)amino]methyl}phenoxy)acetate]"
10,49.9,"CCN(CC)CC(=O)N(CCCn1c(CCOC)nc2c(N)nc3ccccc3c21)Cc1cccc(OCC(=O)OCC(C)C)c1 [Example 28, Isobutyl 2-{3-[(N-{3-[4-amino-2-(2-methoxyethyl)-1H-imidazo[4,5-c]quinolin-1-yl]propyl}-2-(diethylamino)acetamido)methyl]phenoxy}acetate]"
11,136,"CCCCc1nc2c(N)nc3ccccc3c2n1CCCN(Cc1cccc(OCC(=O)OC)c1)C(=O)CN1CCCC1 [Example 13, Methyl (3-{[[3-(4-amino-2-butyl-1H-imidazo[4,5-c]quinolin-1-yl)propyl](pyrrolidin-1-ylacetyl)amino]methyl}phenoxy)acetate]"
12,24.4,"CCOC(=O)COc1cccc(CN(CCN2CCCCC2)C(=O)NCCCCn2c(CCOC)nc3c(N)nc4ccccc4c32)c1 [Example 130, Ethyl 2-{3-[(3-{4-[4-amino-2-(2-methoxyethyl)-1H-imidazo[4,5-c]quinolin-1-yl]butyl}-1-{2-(piperidin-1-yl)ethyl}ureido)methyl]phenoxy}acetate]"
13,174,"CCN(CC)CC(=O)N(CCCn1c(CCOC)nc2c(N)nc3ccccc3c21)Cc1cccc(OCC(=O)OCCOC)c1 [Example 29, 2-Methoxyethyl 2-{3-[(N-{3-[4-amino-2-(2-methoxyethyl)-1H-imidazo[4,5-c]quinolin-1-yl]propyl}-2-(diethylamino)acetamido)methyl]phenoxy}acetate]"
14,79.2,"COCCc1nc2c(N)nc3ccccc3c2n1CCCCNC(=O)N(CCN1CCCCC1)Cc1ccc(F)c(OCC(=O)OC)c1 [Example 144, Methyl 2-{5-[(3-{4-[4-amino-2-(2-methoxyethyl)-1H-imidazo[4,5-c]quinolin-1-yl]butyl}-1-{2-(piperidin-1-yl)ethyl}ureido)methyl]-2-fluorophenoxy}acetate]"
15,16.6,"COCCc1nc2c(N)nc3ccccc3c2n1CCCCN(CCN(C)C)Cc1cccc(OC(C)(C)C(=O)OC)c1 [Example 135, Methyl 2-{3-[({4-[4-amino-2-(2-methoxyethyl)-1H-imidazo[4,5-c]quinolin-1-yl]butyl}{2-(dimethylamino)ethyl}amino)methyl]phenoxy}-2-methylpropanoate]"
16,> 10000,"CCOC(=O)C(C)(C)Oc1cccc(CN(CCn2c(CCOC)nc3c(N)nc4ccccc4c32)C(=O)CN(CC)CC)c1 [Example 106, Ethyl 2-{3-[(N-{2-[4-amino-2-(2-methoxyethyl)-1H-imidazo[4,5-c]quinolin-1-yl]ethyl}-2-{diethylamino}acetamido)methyl]phenoxy}-2-methylpropanoate]"
17,11.2,"CCOC(=O)COc1ccc(CN(CCCCn2c(CCOC)nc3c(N)nc4ccccc4c32)C(=O)NCCN2CCCCC2)cc1 [Example 125, Ethyl 2-{4-[(1-{4-[4-amino-2-(2-methoxyethyl)-1H-imidazo[4,5-c]quinolin-1-yl]butyl}-3-{2-(piperidin-1-yl)ethyl}ureido)methyl]phenoxy}acetate]"
18,228,"CCN(C)CC(=O)N(CCCn1c(CCOC)nc2c(N)nc3ccccc3c21)Cc1cccc(OCC(=O)OC(C)C)c1F [Example 98, Isopropyl 2-{3-[(N-{3-[4-amino-2-(2-methoxyethyl)-1H-imidazo[4,5-c]quinolin-1-yl]propyl}-2-{ethyl(methyl)amino}acetamido)methyl]-2-fluorophenoxy}acetate]"
19,278,"CCN(CC)CC(=O)N(CCCn1c(CCOC)nc2c(N)nc3ccccc3c21)Cc1ccc(F)c(OCC(=O)OC)c1 [Example 120, Methyl 2-{5-[(N-{3-[4-amino-2-(2-methoxyethyl)-1H-imidazo[4,5-c]quinolin-1-yl]propyl}-2-{diethylamino}acetamido)methyl]-2-fluorophenoxy}acetate]"
20,168,"CCCCc1nc2c(N)nc3ccccc3c2n1CCCN(Cc1cccc(OC(C)(C)C(=O)OC)c1)C(=O)CN(C)C [Example 156, Methyl 2-[3-({N-[3-(4-amino-2-butyl-1H-imidazo[4,5-c]quinolin-1-yl)propyl]-2-(dimethylamino)acetamido}methyl)phenoxy]-2-methylpropanoate]"
21,38.3,"CCOC(=O)COc1ccc(CN(CCCn2c(CCOC)nc3c(N)nc4ccccc4c32)C(=O)CN(CC)CC)cc1 [Example 37, Ethyl 2-{4-[(N-{3-[4-amino-2-(2-methoxyethyl)-1H-imidazo[4,5-c]quinolin-1-yl]propyl}-2-(diethylamino)acetamido)methyl]phenoxy}acetate]"
22,266,"COCCc1nc2c(N)nc3ccccc3c2n1CCOCCN(Cc1cccc(OCC(=O)OC(C)C)c1)C(=O)NCCN1CCCCC1 [Example 152, Isopropyl 2-(3-{[1-(2-{2-[4-amino-2-(2-methoxyethyl)-1H-imidazo[4,5-c]quinolin-1-yl]ethoxy}ethyl)-3-{2-(piperidin-1-yl)ethyl}ureido]methyl}phenoxy)acetate]"
23,57.5,"COCCc1nc2c(N)nc3ccccc3c2n1CCCCNC(=O)N(CCN1CCCCC1)Cc1ccc(F)c(OCC(=O)OC(C)C)c1 [Example 142, Isopropyl 2-{5-[(3-{4-[4-amino-2-(2-methoxyethyl)-1H-imidazo[4,5-c]quinolin-1-yl]butyl}-1-{2-(piperidin-1-yl)ethyl}ureido)methyl]-2-fluorophenoxy}acetate]"
